These results are taken from ChEMBL document CHEMBL1137798, “Evaluation of natural products as inhibitors of human immunodeficiency virus type 1 (HIV-1) reverse transcriptase” (J Nat Prod, 1991).

As a reminder, the IC50 is the concentration that inhibits the measured activity by half.

The structures appear in SMILES notation. Where a name gives a salt, the structure may show the parent alone.

In the assay the target is Human immunodeficiency virus type 1 reverse transcriptase (Human immunodeficiency virus 1, UniProt Q72547). Conditions: read-out: IC50 (converted).
As to `COc1cc2c3cc1Oc1cc(ccc1O)C[C@@H]1c4c(cc(OC)c(O)c4Oc4ccc(cc4)C[C@@H]3N(C)CC2)CC[N+]1(C)C`, the half-inhibitory concentration (IC50) was more than 310 µM.
As for `COc1ccc2[nH]c3c(C)c4ccncc4c(C)c3c2c1`, the figure is less than 543 µM.
As for `COc1coc(CO)cc1=O`, the IC50 is more than 1280 µM.
As for `C[C@H](O)C1=C[C@@]2(C=C[C@@H]3C(C(=O)O)=CO[C@@H](O[C@@H]4O[C@H](CO)[C@@H](O)[C@H](O)[C@H]4O)[C@@H]32)OC1=O`, the figure is more than 438 µM.
As for `C/C=C1/CN(C(C)=O)[C@H]2Cc3c([nH]c4ccccc34)C(=O)C[C@@H]1[C@@H]2C(=O)OC`, the figure is more than 526 µM; as for `COc1ccc2c(c1OC)-c1cc(ccc1O)/C=C\C(=O)O[C@H]1C[C@@H]3CCCCN3[C@H]2C1`, more than 460 µM.
Regarding `COc1c(O)cc(O)c2c(=O)c(O)c(-c3ccccc3)oc12`, the IC50 was more than 734 µM.
As for `COC(=O)C1=CO[C@@H](O[C@@H]2O[C@H](CO)[C@@H](O)[C@H](O)[C@H]2O)[C@H]2[C@@H]1C=C[C@@]21C=C([C@H](C)OC(=O)/C=C/c2ccc(O)cc2)C(=O)O1`, the figure is more than 324 µM.
To `CC1=C(C)C(=O)O[C@@H]([C@](C)(O)[C@]2(O)CC[C@@]3(O)[C@@H]4C[C@H]5O[C@]56[C@@H](O)C=CC(=O)[C@]6(C)[C@H]4CC[C@]23C)C1` belongs more than 398 µM.
As for `COc1c2occc2c(CC(O)C(C)(C)O)c2ccc(=O)oc12` (stereo not drawn), the figure is more than 628 µM; as for `CC[C@H]1CN2CCc3cc(OC)c(OC)cc3[C@@H]2C[C@@H]1C[C@H]1NCCc2cc(OC)c(OC)cc21`, more than 387 µM; as for `CC[C@@]12CCCN3CC[C@@]4(C(=Nc5c(OC)cccc54)CC1)[C@H]32`, more than 644 µM.
`COc1cc2c(cc1OC)N1C(=O)C[C@]34C=CCN5CC[C@@H]2[C@@H](CC3)C514`: the IC50 was more than 567 µM.
As for `CC[C@H]1CN2CCc3cc(OC)c(OC)cc3[C@@H]2C[C@@H]1CC1=NCCc2cc(OC)c(OC)cc21`, the figure is 17.3 µM; as for `COc1c2c(c(O)c3ccoc13)C(=O)[C@H]1c3cc4c(cc3OC[C@H]1O2)OCO4`, more than 523 µM.
In the case of `COc1cc2c(OC)c3ccoc3nc2cc1O`, the IC50 was more than 816 µM.
As for `COc1c2ccoc2nc2c(OC(C)=O)cccc12` [ACETYLROBUSRINE], the figure is more than 777 µM; as for `COc1cc2c(c3c1c(=O)c1ccccc1n3C)C=CC(C)(C)O2` [ACRONINE], more than 622 µM; as for `COc1cc2c(c3c1/c(=N\N=c1/c4ccccc4n(C)c4c5c(cc(OC)c14)OC(C)(C)C=C5)c1ccccc1n3C)C=CC(C)(C)O2` [ACRONYCINE AZINE], more than 313 µM.
For `CC[C@H]1[C@@H]2C[C@H]3[C@@H]4N(C)c5ccccc5[C@]45C[C@@H]([C@@H]2[C@H]5O)N3[C@@H]1O` [AJMALINE], the half-inhibitory concentration (IC50) was more than 613 µM.
As for `COC(=O)C1=CO[C@@H](C)[C@@H]2Cn3ccc4c5ccccc5nc-4c3C[C@H]12` [ALSTONINE HYDROCHLORIDE], the IC50 was less than 390 µM.
On to `C[C@]12CCC(=O)C=C1CC[C@@H]1[C@@H]2CC[C@]2(C)C(=O)CC[C@@H]12` [ANDROSTENEDIONE], for which the concentration for half-maximal inhibition (IC50) is more than 698 µM.
To `COC(=O)C1=CCCN(C)C1` [ARECOLINE HYDROBROMIDE] belongs more than 847 µM.
To `COC(=O)C1=CO[C@@H](C)[C@@H]2CN3CCc4c([nH]c5ccc(OC)cc45)[C@@H]3C[C@H]12` [ARICINE] belongs more than 523 µM; to `CC(=O)N[C@H]1[C@H](O[C@H]2CC[C@]3(C)[C@H]4CC=C5[C@H]6CC(C)(C)CC[C@]6(C(=O)O)CC[C@@]5(C)[C@]4(C)CC[C@H]3C2(C)C)O[C@H](CO)[C@@H](O)[C@@H]1O` [ARIDANIN], more than 303 µM.
As for `CC[C@@]12CCCN3CC[C@]4(c5cccc(OC)c5N(C(C)=O)[C@@H]4CC1)[C@H]32` [ASPIDOSPERMINE], the figure is more than 564 µM.
Regarding `COc1ccc2cc3[n+](cc2c1OC)CCc1cc2c(cc1-3)OCO2` [BERBERINE CHLORIDE], the concentration for half-maximal inhibition (IC50) was 269 µM.
As for `C=C(C)[C@@H]1CC[C@]2(CO)CC[C@]3(C)[C@H](CC[C@@H]4[C@@]5(C)CC[C@H](O)C(C)(C)[C@@H]5CC[C@]43C)[C@@H]12` [BETULIN], the figure is more than 452 µM.
To `COc1cc2c(cc1O)C[C@H]1c3c(cc(O)c(OC)c3-2)CCN1C` [BOLDINE] belongs more than 611 µM; to `COC(=O)[C@@]12OC[C@]34[C@H]([C@@H](O)[C@@H]1O)[C@@]1(C)CC(=O)C(O)=C(C)[C@@H]1C[C@H]3OC(=O)[C@H](OC(=O)/C=C(\C)C(C)C)[C@@H]24` [BRUCEANTIN], more than 365 µM.
To `COc1cc2c(cc1OC)[C@@]13CCN4CC5=CCO[C@H]6CC(=O)N2[C@H]1[C@H]6[C@H]5C[C@H]43` [BRUCINE] belongs more than 507 µM; to `CC[C@@]1(O)C(=O)OCc2c1cc1n(c2=O)Cc2cc3ccccc3nc2-1` [CAMPTOTHECIN], more than 574 µM; to `COc1ccc2c(c1OC)C[N+]1(C)CCc3cc4c(cc3C1C2)OCO4` (stereo not drawn) [CANADINE METHCHLORIDE], more than 513 µM.
With `C[C@H]1/C(=C/C(=O)OCCN(C)C)CC[C@H]2[C@H]1C(=O)C[C@H]1C(C)(C)[C@@H](OS(=O)(=O)O)CC[C@]21C` [CASSAINE SULFATE], the IC50 was more than 412 µM.
On to `CCC1=C[C@@H]2CN3CCc4c([nH]c5ccccc45)[C@](C(=O)OC)(C2)[C@@H]13` [CATHARANTHINE HYDROCHLORIDE], for which the 50% inhibitory concentration (IC50) is more than 536 µM.
For `COc1ccc2c(c[n+](C)c3c4cc5c(cc4ccc23)OCO5)c1OC` [CHELERYTHRINE CHLORIDE], the IC50 was less than 521 µM.
As for `CN1Cc2c(ccc3c2OCO3)[C@@H]2[C@H]1c1cc3c(cc1C[C@@H]2O)OCO3` [CHELIDONINE], the figure is less than 566 µM; as for `C=C[C@H]1C[N@@]2CC[C@H]1C[C@@H]2[C@@H](O)c1ccnc2ccccc12` [CINCHONINE], more than 679 µM.
To `COc1cc2c(c(OC)c1OC)-c1ccc(OC)c(=O)cc1[C@@H](NC(C)=O)CC2` [COLCHICINE] belongs more than 501 µM.
`COc1cc2c(cc1O)-c1cc3ccc(OC)c(OC)c3c[n+]1CC2` [COLUMBAMINE IODIDE]: the IC50 was 125 µM.
To `CC[C@]12CCc3[nH]c4ccccc4c3CCN(C[C@H]3O[C@H]31)C2` [CONOFLORINE] belongs more than 675 µM; to `CC[C@H]1C[C@@H]2CN3CCc4c([nH]c5cc(OC)c(OC)cc45)[C@](C(=O)OC)(C2)[C@H]13` [CONOPHARYNGINE], more than 502 µM; to `CC[C@@H]1CN2CCc3c([nH]c4ccccc34)[C@@H]2C[C@@H]1/C(=C\OC)C(=O)OC` [CORYNANRHEIDINE], more than 543 µM.
As for `COC(=O)[C@H]1[C@H]2C[C@H]3c4[nH]c5ccccc5c4CCN3C[C@@H]2CC[C@@H]1O` [CORYNANTHEINE], the figure is more than 564 µM; as for `COc1cccc2c1C(=O)c1c(O)c3c(c(O)c1C2=O)C[C@@](O)(C(C)=O)C[C@@H]3O[C@H]1C[C@H](N)[C@H](O)[C@H](C)O1` [DAUNORUBICIN], 237 µM.
As for `COC(=O)[C@@H]1[C@@H](OC)[C@H](OC(=O)c2cc(OC)c(OC)c(OC)c2)C=C2CN3CCc4c([nH]c5ccccc45)[C@@H]3C[C@@H]21` [DESERPIDEINE HYDROCHLORIDE], the figure is more than 326 µM; as for `COC(=O)[C@H]1[C@H]2C[C@@H]3c4[nH]c5ccccc5c4CCN3C[C@H]2C[C@@H](OC(=O)c2cc(OC)c(OC)c(OC)c2)[C@@H]1OC` [DESERPIDINE], more than 346 µM.
As for `COc1cc2c(c3c1c(=O)c1ccccc1n3C)CCC(C)(C)O2` [DIHYDROACRONYCINE], the half-maximal inhibitory concentration (IC50) was more than 618 µM.
To `COc1ccc2c(c1OC)CN1CCc3cc4c(cc3C1=C2)OCO4` [DIHYDROBERBERINE] belongs more than 593 µM; to `O=c1oc2c(O)c(O)cc3c(=O)oc4c(O)c(O)cc1c4c23` [ELLAGIC ACID], less than 496 µM; to `Cc1c2ccncc2c(C)c2c1[nH]c1ccccc12` [ELLIPTECINE], less than 609 µM.
To `CN[C@@H](C)[C@H](O)c1ccccc1` [EPHEDRINE SULFATE] belongs more than 933 µM; to `O=c1ccc2cc(O[C@@H]3O[C@H](CO)[C@@H](O)[C@H](O)[C@H]3O)c(O)cc2o1` [ESCULIN], more than 588 µM.
To `C/C=C/C=C1\C=Cc2c(C(=O)OC)coc(=O)c21` [FULVOPLUMIERIN] belongs 184 µM.
As for `COc1cc(O)c2c(=O)cc(-c3ccc(O)cc3)oc2c1` [GENKWANIN], the IC50 is more than 704 µM.
To `CC(C)=CCC[C@](C)(O[C@@H]1O[C@H](CO[C@@H]2O[C@H](CO)[C@@H](O)[C@H](O)[C@H]2O)[C@@H](O)[C@H](O)[C@H]1O)[C@H]1CC[C@]2(C)[C@@H]1[C@H](O)C[C@@H]1[C@@]3(C)CC[C@H](O[C@@H]4O[C@H](CO)[C@@H](O)[C@H](O)[C@H]4O[C@@H]4O[C@H](CO)[C@@H](O)[C@H](O)[C@H]4O)C(C)(C)[C@@H]3CC[C@]12C` [GINSENOSIDE RB1] belongs more than 180 µM.
As for `CC(C)=CCC[C@](C)(O[C@@H]1O[C@H](CO)[C@@H](O)[C@H](O)[C@H]1O)[C@H]1CC[C@]2(C)[C@@H]1[C@H](O)C[C@@H]1[C@@]3(C)CC[C@H](O)C(C)(C)[C@@H]3[C@@H](O[C@@H]3O[C@H](CO)[C@@H](O)[C@H](O)[C@H]3O[C@@H]3O[C@@H](C)[C@H](O)[C@@H](O)[C@H]3O)C[C@]12C` [GINSENOSIDE RE], the figure is more than 211 µM; as for `COC(=O)C[C@](O)(CCC(C)(C)O)C(=O)O[C@@H]1C(OC)=C[C@]23CCCN2CCc2cc4c(cc2[C@H]13)OCO4` [HARRINGTONINE], more than 376 µM.
To `COc1ccc2cc1Oc1ccc(cc1)C[C@H]1c3cc(c(OC)cc3CCN1C)Oc1c(OC)c(OC)c(OC)c3c1[C@H](C2)N(C)CC3` [HERNANDEZINE] belongs more than 306 µM; to `COc1ccc2c(c1OC)C(=O)O[C@@H]2[C@H]1c2cc3c(cc2CCN1C)OCO3` [HYDRASTINE], more than 522 µM.
For `CC(C)[C@](O)(C(=O)OCC1=CC[N+]2([O-])CC[C@@H](O)[C@@H]12)[C@H](C)O` (stereo partly drawn) [INDICINE N-OXIDE], the IC50 is more than 634 µM.
As for `Cn1cncc1C[C@H]1COC(=O)[C@@H]1[C@@H](O)c1ccccc1` [ISOPILOSINE], the figure is more than 698 µM; as for `COC(=O)[C@H]1[C@H]2C[C@@H]3c4[nH]c5ccccc5c4CCN3C[C@H]2C[C@@H](O)[C@@H]1OC(=O)c1cc(OC)c(OC)c(OC)c1` [ISORAUNESCINE], more than 354 µM.
